In the kinase profiling compilation of Christmann-Franck et al. (2016):

What was measured:
Assay in all cases: radiometric filter-binding kinase assay
EEF2K (human) = EEF2K (human) (UniProt O00418); conditions: ATP 5 µM
MELK (human) = MELK (human) (UniProt Q14680); conditions: ATP 50 µM
CSNK1D (human) = CSNK1D (human) (UniProt P48730); conditions: ATP 20 µM
BTK (human) = BTK (human) (UniProt Q06187); conditions: ATP 50 µM
MAPK14 (human) = MAPK14 (human) (UniProt Q16539); conditions: ATP 50 µM
EPHA2 (human) = EPHA2 (human) (UniProt P29317); conditions: ATP 50 µM
CSK (human) = CSK (human) (UniProt P41240); conditions: ATP 20 µM
MKNK1 (human) = MKNK1 (human) (UniProt Q9BUB5); conditions: ATP 50 µM
RPS6KA3 KD1 KD2 (human) = RPS6KA3 KD1 KD2 (human) (UniProt P51812); conditions: ATP 100 µM
FLT1 (human) = FLT1 (human) (UniProt P17948)
INSR (human) = INSR (human) (UniProt P06213); conditions: ATP 20 µM
SRC (human) = SRC (human) (UniProt P12931); conditions: ATP 50 µM
[1] = system: AKT1 (human), P31749 [S473D]; conditions: ATP 5 µM
TBK1 (human) = TBK1 (human) (UniProt Q9UHD2); conditions: ATP 50 µM
PAK6 (human) = PAK6 (human) (UniProt Q9NQU5); conditions: ATP 20 µM
PAK7 (human) = PAK7 (human) (UniProt Q9P286); conditions: ATP 20 µM
YES1 (human) = YES1 (human) (UniProt P07947); conditions: ATP 20 µM
RPS6KA5 KD1 KD2 (human) = RPS6KA5 KD1 KD2 (human) (UniProt O75582); conditions: ATP 100 µM
CHEK2 (human) = CHEK2 (human) (UniProt O96017); conditions: ATP 20 µM
PHKG1 (human) = PHKG1 (human) (UniProt Q16816); conditions: ATP 50 µM
PI4KA (human) = PI4KA (human) (UniProt P42356)
[2] = system: RPS6KB1 (human), P23443 [T412E]; conditions: ATP 100 µM
MST4 (human) = MST4 (human) (UniProt Q9P289); conditions: ATP 20 µM
CHEK1 (human) = CHEK1 (human) (UniProt O14757); conditions: ATP 20 µM
[3] = biological target: PRKAA1 PRKAB2 PRKAG1 (human) (UniProt O43741+Q13131+P54619); conditions: ATP 50 µM
DYRK3 (human) = DYRK3 (human) (UniProt O43781); conditions: ATP 5 µM
PRKCZ (human) = PRKCZ (human) (UniProt Q05513); conditions: ATP 5 µM
PKN2 (human) = PKN2 (human) (UniProt Q16513); conditions: ATP 5 µM

MKNK1 (human), sequence (Q9BUB5 whole entry, looked up): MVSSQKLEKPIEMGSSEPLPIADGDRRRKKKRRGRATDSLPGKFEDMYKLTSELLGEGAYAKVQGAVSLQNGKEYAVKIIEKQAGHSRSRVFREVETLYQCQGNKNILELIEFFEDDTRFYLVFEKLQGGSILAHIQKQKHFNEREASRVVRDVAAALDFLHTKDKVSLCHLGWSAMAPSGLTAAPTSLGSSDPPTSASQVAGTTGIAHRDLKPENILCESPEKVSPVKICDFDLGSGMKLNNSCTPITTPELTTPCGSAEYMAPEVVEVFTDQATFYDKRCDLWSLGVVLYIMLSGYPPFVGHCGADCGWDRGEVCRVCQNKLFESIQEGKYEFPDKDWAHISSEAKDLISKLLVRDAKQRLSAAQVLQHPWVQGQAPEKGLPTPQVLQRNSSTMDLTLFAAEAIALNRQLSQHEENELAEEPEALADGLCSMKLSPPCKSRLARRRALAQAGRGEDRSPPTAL
MELK (human), sequence (Q14680 whole entry, looked up): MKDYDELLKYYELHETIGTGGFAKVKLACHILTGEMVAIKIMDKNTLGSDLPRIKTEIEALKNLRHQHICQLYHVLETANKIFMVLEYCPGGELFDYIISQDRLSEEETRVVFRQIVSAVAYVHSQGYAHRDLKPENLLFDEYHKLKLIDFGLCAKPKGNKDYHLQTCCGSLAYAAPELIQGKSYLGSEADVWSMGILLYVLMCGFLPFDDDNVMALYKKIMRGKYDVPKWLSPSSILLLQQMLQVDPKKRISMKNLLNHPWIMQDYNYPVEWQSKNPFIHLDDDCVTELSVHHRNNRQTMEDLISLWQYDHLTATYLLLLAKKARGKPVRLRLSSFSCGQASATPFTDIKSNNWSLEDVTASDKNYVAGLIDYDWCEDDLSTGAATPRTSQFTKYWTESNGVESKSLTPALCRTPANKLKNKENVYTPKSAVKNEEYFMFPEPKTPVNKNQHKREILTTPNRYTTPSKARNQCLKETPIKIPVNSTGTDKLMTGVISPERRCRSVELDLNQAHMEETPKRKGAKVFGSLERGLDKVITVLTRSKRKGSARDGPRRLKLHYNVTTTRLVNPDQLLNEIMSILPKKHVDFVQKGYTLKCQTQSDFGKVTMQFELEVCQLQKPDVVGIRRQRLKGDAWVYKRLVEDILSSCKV
CHEK2 (human), sequence (O96017 whole entry, looked up): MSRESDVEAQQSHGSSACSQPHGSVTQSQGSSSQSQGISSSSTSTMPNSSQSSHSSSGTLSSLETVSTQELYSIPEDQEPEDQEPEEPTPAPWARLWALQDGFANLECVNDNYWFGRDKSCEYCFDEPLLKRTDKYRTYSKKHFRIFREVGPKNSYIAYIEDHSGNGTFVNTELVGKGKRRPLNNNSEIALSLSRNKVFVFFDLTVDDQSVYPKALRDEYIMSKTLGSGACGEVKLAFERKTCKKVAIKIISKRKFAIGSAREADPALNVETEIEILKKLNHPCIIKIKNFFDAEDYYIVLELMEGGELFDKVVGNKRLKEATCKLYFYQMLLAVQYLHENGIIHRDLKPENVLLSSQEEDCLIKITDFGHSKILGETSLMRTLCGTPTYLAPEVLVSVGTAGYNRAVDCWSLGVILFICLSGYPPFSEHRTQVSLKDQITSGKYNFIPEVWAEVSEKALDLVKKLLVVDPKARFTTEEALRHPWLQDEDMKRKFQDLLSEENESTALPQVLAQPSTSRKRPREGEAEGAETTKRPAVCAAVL
RPS6KA5 KD1 KD2 (human), sequence (O75582 whole entry, looked up): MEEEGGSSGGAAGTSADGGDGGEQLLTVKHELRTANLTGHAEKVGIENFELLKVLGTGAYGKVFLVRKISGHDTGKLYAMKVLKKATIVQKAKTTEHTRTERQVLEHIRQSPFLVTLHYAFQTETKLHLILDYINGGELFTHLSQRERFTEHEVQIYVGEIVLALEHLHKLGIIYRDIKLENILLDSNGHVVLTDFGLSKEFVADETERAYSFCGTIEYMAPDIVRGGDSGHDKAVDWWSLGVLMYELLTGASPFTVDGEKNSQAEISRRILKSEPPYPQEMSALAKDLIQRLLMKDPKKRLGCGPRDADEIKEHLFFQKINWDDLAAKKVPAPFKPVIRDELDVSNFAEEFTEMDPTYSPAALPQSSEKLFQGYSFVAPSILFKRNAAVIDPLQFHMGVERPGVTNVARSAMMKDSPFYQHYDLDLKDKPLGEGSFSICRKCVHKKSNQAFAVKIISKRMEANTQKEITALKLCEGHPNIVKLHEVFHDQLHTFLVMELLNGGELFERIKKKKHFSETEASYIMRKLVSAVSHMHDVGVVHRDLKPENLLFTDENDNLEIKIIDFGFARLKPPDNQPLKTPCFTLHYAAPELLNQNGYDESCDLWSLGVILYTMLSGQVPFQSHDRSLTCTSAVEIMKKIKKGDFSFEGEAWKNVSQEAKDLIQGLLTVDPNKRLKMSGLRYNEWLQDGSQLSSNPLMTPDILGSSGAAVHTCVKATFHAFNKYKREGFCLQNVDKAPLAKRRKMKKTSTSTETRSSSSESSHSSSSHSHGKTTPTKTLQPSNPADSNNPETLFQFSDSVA
CHEK1 (human), sequence (O14757 whole entry, looked up): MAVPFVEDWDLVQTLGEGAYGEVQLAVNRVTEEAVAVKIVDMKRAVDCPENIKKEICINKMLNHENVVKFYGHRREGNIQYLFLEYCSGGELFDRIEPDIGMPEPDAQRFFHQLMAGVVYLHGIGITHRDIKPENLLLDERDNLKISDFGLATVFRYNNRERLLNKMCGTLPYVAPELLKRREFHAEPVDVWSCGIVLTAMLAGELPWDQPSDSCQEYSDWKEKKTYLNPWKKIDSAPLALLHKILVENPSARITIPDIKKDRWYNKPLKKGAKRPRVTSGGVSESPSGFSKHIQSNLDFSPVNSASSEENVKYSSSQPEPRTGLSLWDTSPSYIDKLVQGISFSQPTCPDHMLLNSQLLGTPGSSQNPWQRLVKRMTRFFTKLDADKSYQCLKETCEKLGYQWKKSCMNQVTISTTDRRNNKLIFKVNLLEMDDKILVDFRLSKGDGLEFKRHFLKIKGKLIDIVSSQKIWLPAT
PAK6 (human), sequence (Q9NQU5 whole entry, looked up): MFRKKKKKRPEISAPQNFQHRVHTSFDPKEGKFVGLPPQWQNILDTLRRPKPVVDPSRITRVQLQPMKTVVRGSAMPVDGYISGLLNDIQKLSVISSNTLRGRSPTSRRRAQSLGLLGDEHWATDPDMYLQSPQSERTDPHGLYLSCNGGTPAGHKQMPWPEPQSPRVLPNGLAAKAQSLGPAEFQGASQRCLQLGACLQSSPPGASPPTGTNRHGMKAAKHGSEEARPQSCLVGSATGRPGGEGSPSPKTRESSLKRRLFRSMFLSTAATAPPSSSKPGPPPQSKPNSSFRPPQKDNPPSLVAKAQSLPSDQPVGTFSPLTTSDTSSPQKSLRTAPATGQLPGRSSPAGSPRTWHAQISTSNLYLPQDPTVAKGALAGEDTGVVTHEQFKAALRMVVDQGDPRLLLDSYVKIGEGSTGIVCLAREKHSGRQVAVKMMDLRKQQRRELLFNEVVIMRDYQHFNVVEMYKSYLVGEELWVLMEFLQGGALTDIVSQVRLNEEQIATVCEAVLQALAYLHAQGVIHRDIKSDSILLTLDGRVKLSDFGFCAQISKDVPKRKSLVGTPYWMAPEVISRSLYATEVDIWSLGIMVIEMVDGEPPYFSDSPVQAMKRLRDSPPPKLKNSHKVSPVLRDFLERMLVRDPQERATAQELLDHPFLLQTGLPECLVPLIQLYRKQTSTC
FLT1 (human), sequence (P17948 whole entry, looked up): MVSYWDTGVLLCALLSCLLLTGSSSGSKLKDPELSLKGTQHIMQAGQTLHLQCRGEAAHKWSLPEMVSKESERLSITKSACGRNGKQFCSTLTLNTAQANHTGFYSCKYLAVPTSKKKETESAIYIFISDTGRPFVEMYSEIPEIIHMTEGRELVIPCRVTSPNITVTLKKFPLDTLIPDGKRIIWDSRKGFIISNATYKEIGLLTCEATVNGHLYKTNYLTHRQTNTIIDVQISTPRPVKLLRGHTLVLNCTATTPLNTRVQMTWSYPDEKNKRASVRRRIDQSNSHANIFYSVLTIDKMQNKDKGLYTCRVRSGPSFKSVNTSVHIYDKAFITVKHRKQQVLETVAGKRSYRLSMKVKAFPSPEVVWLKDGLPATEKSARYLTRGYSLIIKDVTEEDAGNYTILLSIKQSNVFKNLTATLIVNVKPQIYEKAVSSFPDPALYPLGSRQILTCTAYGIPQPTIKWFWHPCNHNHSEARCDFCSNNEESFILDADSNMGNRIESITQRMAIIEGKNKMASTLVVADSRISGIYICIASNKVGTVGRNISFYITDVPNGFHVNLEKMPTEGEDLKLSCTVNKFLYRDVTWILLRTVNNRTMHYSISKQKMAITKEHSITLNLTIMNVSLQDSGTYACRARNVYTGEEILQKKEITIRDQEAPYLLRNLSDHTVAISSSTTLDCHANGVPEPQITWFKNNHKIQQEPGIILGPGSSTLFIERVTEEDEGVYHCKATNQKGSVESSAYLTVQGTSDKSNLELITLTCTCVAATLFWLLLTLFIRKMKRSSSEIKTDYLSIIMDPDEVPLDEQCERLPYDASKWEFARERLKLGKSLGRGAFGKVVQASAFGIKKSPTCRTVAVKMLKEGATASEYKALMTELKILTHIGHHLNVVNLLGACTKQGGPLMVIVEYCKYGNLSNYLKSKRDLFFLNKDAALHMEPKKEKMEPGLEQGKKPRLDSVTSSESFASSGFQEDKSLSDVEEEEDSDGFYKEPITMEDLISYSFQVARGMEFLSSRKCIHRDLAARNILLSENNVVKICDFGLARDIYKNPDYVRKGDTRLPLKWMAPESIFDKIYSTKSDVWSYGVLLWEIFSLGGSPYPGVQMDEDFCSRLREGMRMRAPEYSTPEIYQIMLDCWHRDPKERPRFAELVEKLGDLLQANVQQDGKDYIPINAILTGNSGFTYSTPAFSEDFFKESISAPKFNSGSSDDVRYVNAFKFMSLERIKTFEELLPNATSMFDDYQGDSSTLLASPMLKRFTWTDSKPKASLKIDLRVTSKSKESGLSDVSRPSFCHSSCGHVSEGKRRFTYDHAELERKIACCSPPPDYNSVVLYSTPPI

- residual activity (EEF2K (human); compound 0.1 µM): 90%
- residual activity (EEF2K (human); compound 1.0 µM): 73%
- residual activity (EEF2K (human); compound 10.0 µM): 78%
- residual activity (MELK (human); compound 0.1 µM): 94%
- residual activity (MELK (human); compound 1.0 µM): 101%
- residual activity (MELK (human); compound 10.0 µM): 87%
- residual activity (CSNK1D (human); compound 0.1 µM): 96%
- residual activity (CSNK1D (human); compound 1.0 µM): 93%
- residual activity (CSNK1D (human); compound 10.0 µM): 71%
- residual activity (BTK (human); compound 0.1 µM): 83%
- residual activity (BTK (human); compound 1.0 µM): 87%
- residual activity (BTK (human); compound 10.0 µM): 92%
- residual activity (MAPK14 (human); compound 0.1 µM): 86%
- residual activity (MAPK14 (human); compound 1.0 µM): 79%
- residual activity (MAPK14 (human); compound 10.0 µM): 86%
- residual activity (EPHA2 (human); compound 0.1 µM): 95%
- residual activity (EPHA2 (human); compound 1.0 µM): 86%
- residual activity (EPHA2 (human); compound 10.0 µM): 89%
- residual activity (CSK (human); compound 0.1 µM): 94%
- residual activity (CSK (human); compound 1.0 µM): 93%
- residual activity (CSK (human); compound 10.0 µM): 98%
- residual activity (MKNK1 (human); compound 0.1 µM): 101%
- residual activity (MKNK1 (human); compound 1.0 µM): 91%
- residual activity (MKNK1 (human); compound 10.0 µM): 79%
- IC50 (RPS6KA3 KD1 KD2 (human)): 9.2 µM
- residual activity (RPS6KA3 KD1 KD2 (human); compound 0.1 µM): 100%
- residual activity (RPS6KA3 KD1 KD2 (human); compound 1.0 µM): 86%
- residual activity (RPS6KA3 KD1 KD2 (human); compound 10.0 µM): 45%
- residual activity (FLT1 (human); compound 0.1 µM, ATP 20 µM): 97%
- residual activity (FLT1 (human); compound 0.1 µM, ATP 100 µM): 100%
- residual activity (FLT1 (human); compound 1.0 µM, ATP 20 µM): 83%
- residual activity (FLT1 (human); compound 1.0 µM, ATP 100 µM): 65%
- residual activity (FLT1 (human); compound 10.0 µM, ATP 20 µM): 37%
- residual activity (FLT1 (human); compound 10.0 µM, ATP 100 µM): 55%
- residual activity (INSR (human); compound 0.1 µM): 108%
- residual activity (INSR (human); compound 1.0 µM): 95%
- residual activity (INSR (human); compound 10.0 µM): 96%
- residual activity (SRC (human); compound 0.1 µM): 103%
- residual activity (SRC (human); compound 1.0 µM): 99%
- residual activity (SRC (human); compound 10.0 µM): 92%
- residual activity ([1]; compound 0.1 µM): 87%
- residual activity ([1]; compound 1.0 µM): 69%
- residual activity ([1]; compound 10.0 µM): 52%
- residual activity (TBK1 (human); compound 0.1 µM): 100%
- residual activity (TBK1 (human); compound 1.0 µM): 89%
- residual activity (TBK1 (human); compound 10.0 µM): 93%
- residual activity (PAK6 (human); compound 0.1 µM): 99%
- residual activity (PAK6 (human); compound 1.0 µM): 83%
- residual activity (PAK6 (human); compound 10.0 µM): 86%
- residual activity (PAK7 (human); compound 0.1 µM): 100%
- residual activity (PAK7 (human); compound 1.0 µM): 88%
- residual activity (PAK7 (human); compound 10.0 µM): 87%
- residual activity (YES1 (human); compound 0.1 µM): 98%
- residual activity (YES1 (human); compound 1.0 µM): 84%
- residual activity (YES1 (human); compound 10.0 µM): 76%
- IC50 (RPS6KA5 KD1 KD2 (human)): 0.95 µM
- residual activity (RPS6KA5 KD1 KD2 (human); compound 0.1 µM): 80%
- residual activity (RPS6KA5 KD1 KD2 (human); compound 1.0 µM): 42%
- residual activity (RPS6KA5 KD1 KD2 (human); compound 10.0 µM): 14%
- residual activity (CHEK2 (human); compound 0.1 µM): 101%
- residual activity (CHEK2 (human); compound 1.0 µM): 73%
- residual activity (CHEK2 (human); compound 10.0 µM): 72%
- residual activity (PHKG1 (human); compound 0.1 µM): 100%
- residual activity (PHKG1 (human); compound 1.0 µM): 96%
- residual activity (PHKG1 (human); compound 10.0 µM): 104%
- residual activity (PI4KA (human); compound 1.0 µM): 106%
- residual activity (PI4KA (human); compound 10.0 µM): 102%
- residual activity ([2]; compound 0.1 µM): 58%
- residual activity ([2]; compound 1.0 µM): 23%
- residual activity ([2]; compound 10.0 µM): 7%
- residual activity (MST4 (human); compound 0.1 µM): 87%
- residual activity (MST4 (human); compound 1.0 µM): 77%
- residual activity (MST4 (human); compound 10.0 µM): 46%
- residual activity (CHEK1 (human); compound 0.1 µM): 90%
- residual activity (CHEK1 (human); compound 1.0 µM): 83%
- residual activity (CHEK1 (human); compound 10.0 µM): 83%
- residual activity ([3]; compound 0.1 µM): 100%
- residual activity ([3]; compound 1.0 µM): 88%
- residual activity ([3]; compound 10.0 µM): 46%
- residual activity (DYRK3 (human); compound 0.1 µM): 106%
- residual activity (DYRK3 (human); compound 1.0 µM): 92%
- residual activity (DYRK3 (human); compound 10.0 µM): 83%
- residual activity (PRKCZ (human); compound 0.1 µM): 78%
- residual activity (PRKCZ (human); compound 1.0 µM): 75%
- residual activity (PRKCZ (human); compound 10.0 µM): 70%
- residual activity (PKN2 (human); compound 0.1 µM): 95%
- residual activity (PKN2 (human); compound 1.0 µM): 86%
- residual activity (PKN2 (human); compound 10.0 µM): 84%
Compound: CCc1cncnc1N1CCN(Cc2nc3cc(C(F)(F)F)ccc3[nH]2)CC1
